This note sets out measurements from ChEMBL document CHEMBL1121623, “Thrombin inhibitors. 3. Carboxyl-containing amide derivatives of N alpha-substituted L-arginine” (J Med Chem, 1980).

The experiment addresses Prothrombin (Bos taurus, UniProt P00735). As to the kind of experiment: Concentration at which the clotting time was prolonged by twice that of the control by inhibiting thrombin. The format is functional. To be noted: read-out: I50.

Regarding `COCCN(CC(=O)O)C(=O)C(CCCN=C(N)N)NS(=O)(=O)c1ccc2c(c1)OCCO2` (centres undefined), the IC50 amounted to 32000 nM.
The result for `CCCC1CCN(C(=O)C(CCCN=C(N)N)NS(=O)(=O)c2ccc3cc(OC)c(OC)cc3c2)C(C(=O)O)C1` (centres undefined) reads 500 nM; that for `COCCN(CC(=O)O)C(=O)C(CCCN=C(N)N)NS(=O)(=O)c1ccc2c(c1)-c1ccccc1C2` (centres undefined), 400 nM; that for `CC1CCN(C(=O)C(CCCN=C(N)N)NS(=O)(=O)c2ccc3oc4ccccc4c3c2)C(C(=O)O)C1` (centres undefined), 100 nM.
